Bridge positions count the residues as written; N and C are the ends. Peptide text beside a SMILES is read from it.
Assays:
[1] = molecular target: Sodium channel protein type 9 subunit alpha (Homo sapiens, UniProt Q15858); assay: Inhibition of human NaV1.7 at -140 mV holding potential by whole-cell patch clamp assay
[2] = molecular target: Sodium channel protein type 5 subunit alpha (Homo sapiens, UniProt Q14524); assay: Inhibition of human NaV1.5 at -140 mV holding potential by whole-cell patch clamp assay
Chain of Sodium channel protein type 5 subunit alpha (Q14524 whole entry): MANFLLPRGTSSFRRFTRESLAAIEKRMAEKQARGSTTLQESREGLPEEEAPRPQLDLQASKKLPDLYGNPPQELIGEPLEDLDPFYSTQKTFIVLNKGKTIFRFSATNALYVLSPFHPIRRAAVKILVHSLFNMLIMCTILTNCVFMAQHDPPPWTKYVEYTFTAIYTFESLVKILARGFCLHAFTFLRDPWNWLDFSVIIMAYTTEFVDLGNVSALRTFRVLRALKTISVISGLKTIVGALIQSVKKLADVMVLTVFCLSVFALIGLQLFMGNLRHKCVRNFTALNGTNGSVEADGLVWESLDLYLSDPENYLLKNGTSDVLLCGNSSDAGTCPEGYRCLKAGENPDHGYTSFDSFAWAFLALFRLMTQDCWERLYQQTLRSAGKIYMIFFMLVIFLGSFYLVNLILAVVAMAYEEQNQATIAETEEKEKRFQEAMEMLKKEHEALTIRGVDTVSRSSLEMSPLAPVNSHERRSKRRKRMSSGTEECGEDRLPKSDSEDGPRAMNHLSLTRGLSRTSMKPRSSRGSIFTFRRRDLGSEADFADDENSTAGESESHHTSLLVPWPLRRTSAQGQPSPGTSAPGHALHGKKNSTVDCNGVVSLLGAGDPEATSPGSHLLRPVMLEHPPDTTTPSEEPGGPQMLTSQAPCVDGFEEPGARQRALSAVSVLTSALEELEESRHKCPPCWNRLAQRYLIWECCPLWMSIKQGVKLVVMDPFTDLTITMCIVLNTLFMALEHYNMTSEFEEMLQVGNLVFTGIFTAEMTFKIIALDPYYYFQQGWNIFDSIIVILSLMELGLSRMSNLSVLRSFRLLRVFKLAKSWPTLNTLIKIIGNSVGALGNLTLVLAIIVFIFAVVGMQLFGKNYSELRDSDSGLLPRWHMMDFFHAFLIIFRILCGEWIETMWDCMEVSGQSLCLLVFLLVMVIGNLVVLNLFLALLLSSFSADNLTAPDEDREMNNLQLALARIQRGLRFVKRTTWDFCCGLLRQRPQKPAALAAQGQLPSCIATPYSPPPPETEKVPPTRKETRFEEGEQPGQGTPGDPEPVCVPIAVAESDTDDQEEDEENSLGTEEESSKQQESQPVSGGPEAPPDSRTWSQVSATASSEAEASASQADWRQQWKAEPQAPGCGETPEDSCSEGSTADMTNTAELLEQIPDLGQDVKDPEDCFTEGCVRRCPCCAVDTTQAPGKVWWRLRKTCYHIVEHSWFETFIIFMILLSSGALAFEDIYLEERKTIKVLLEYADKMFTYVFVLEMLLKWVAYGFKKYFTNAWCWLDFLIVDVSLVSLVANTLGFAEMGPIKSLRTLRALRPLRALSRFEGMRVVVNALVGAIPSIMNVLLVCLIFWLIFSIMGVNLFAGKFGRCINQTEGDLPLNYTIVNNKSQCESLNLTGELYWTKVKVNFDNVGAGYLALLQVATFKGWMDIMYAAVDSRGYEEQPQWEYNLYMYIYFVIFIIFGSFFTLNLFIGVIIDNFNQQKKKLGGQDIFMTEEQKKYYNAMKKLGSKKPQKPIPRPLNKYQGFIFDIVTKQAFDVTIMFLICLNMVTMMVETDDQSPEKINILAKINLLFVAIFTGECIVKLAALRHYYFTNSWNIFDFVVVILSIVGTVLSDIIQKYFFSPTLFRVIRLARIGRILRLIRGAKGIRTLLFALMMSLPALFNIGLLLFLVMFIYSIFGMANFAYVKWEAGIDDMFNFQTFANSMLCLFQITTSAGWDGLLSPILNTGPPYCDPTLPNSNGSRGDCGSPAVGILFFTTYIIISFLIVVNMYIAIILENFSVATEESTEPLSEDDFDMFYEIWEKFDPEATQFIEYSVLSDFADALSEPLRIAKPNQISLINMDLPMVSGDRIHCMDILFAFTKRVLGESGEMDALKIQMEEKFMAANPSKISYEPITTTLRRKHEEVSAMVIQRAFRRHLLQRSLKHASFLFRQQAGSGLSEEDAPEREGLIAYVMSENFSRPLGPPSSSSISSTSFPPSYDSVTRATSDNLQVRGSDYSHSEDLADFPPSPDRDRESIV

Chain of Sodium channel protein type 9 subunit alpha (Q15858 whole entry): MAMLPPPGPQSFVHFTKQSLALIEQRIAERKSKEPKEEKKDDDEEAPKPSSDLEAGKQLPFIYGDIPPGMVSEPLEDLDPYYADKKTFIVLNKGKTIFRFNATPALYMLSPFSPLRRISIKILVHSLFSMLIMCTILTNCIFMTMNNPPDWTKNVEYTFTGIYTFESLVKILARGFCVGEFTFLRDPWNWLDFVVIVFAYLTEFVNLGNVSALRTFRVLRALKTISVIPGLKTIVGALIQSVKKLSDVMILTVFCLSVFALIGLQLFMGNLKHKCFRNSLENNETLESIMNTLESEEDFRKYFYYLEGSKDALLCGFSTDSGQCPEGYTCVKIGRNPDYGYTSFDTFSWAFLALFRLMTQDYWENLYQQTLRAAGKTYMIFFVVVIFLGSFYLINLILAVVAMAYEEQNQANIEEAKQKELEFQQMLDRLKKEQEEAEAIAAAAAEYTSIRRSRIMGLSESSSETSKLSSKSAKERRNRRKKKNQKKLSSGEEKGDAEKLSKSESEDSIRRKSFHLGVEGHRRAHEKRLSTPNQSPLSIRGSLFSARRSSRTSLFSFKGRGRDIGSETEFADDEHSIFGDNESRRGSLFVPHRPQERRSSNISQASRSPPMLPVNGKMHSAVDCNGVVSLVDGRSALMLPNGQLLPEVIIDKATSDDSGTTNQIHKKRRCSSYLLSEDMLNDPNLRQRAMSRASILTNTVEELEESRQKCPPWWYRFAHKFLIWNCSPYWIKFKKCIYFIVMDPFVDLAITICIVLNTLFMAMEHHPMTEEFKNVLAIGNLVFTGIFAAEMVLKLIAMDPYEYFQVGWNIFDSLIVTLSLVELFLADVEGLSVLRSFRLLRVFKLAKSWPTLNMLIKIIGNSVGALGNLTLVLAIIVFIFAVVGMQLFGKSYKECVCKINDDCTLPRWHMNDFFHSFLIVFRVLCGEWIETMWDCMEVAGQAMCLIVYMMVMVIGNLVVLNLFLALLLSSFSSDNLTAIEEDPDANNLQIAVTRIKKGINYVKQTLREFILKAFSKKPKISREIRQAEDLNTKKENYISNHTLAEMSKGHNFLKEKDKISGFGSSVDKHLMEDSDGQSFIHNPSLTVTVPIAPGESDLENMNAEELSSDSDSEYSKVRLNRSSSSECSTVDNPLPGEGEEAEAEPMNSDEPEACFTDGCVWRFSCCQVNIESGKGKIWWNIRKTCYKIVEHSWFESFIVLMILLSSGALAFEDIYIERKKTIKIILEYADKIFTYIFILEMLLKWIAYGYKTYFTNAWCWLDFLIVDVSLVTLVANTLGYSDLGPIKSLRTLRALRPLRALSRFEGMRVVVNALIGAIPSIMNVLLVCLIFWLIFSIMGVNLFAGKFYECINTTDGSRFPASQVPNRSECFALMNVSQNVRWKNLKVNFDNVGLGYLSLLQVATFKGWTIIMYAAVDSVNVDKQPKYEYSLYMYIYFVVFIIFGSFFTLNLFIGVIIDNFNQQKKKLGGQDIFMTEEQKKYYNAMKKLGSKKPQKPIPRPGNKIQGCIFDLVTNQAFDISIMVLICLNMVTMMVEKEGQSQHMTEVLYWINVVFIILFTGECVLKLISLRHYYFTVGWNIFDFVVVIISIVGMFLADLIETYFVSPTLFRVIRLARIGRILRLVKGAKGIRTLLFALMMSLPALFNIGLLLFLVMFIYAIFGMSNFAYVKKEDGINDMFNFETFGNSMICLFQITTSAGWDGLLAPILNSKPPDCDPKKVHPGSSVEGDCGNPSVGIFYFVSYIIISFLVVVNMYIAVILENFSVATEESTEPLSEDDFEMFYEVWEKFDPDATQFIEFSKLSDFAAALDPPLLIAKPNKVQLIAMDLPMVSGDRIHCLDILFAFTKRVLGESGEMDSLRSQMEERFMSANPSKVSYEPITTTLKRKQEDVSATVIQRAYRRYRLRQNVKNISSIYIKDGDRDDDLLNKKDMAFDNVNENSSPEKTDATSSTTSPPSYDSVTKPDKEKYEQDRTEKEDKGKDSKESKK

Row | Structure (SMILES) | IC50 [1] [µM] | IC50 [2] [µM]
1 | CC[C@H](C)[C@@H]1NC(=O)[C@@H]2CSSC[C@@H]3NC(=O)[C@H](C(C)C)NC(=O)[C@H](CC(C)C)NC(=O)[C@H](CC(N)=O)NC(=O)[C@@H]4CCCN4C(=O)[C@H](CCCNC(=N)N)NC(=O)[C@H](CSSC[C@H](NC(=O)[C@@H](N)CC(=O)O)C(=O)N[C@@H](CC(C)C)C(=O)NCC(=O)N[C@@H](Cc4ccccc4)C(=O)N[C@@H](CCSC)C(=O)N[C@@H](CCCNC(=N)N)C(=O)N[C@@H](CCCCN)C(=O)N2)NC(=O)[C@H](CSSC[C@@H](C(=O)N[C@@H](CCCCN)C(=O)N[C@@H](Cc2ccc(O)cc2)C(=O)N[C@H](C(=O)N[C@@H](Cc2ccccc2)C(N)=O)C(C)C)NC(=O)[C@H](Cc2c[nH]c4ccccc24)NC(=O)[C@H](CCCCN)NC(=O)[C@H](Cc2cnc[nH]2)NC(=O)[C@H](CC(C)C)NC(=O)[C@H](CCCNC(=N)N)NC(=O)[C@H](CO)NC3=O)NC(=O)[C@H](CCCCN)NC(=O)[C@H](CC(=O)O)NC(=O)[C@H](CC(N)=O)NC(=O)[C@H](CC(=O)O)NC(=O)[C@@H]2CCCN2C1=O (H-DCLGFMRKCIPDNDKCCRPNLVCSRLHKWCKYVF-NH2; disulfide 2-17, 9-23, 16-30) | 0.004 | 4.6
2 | CC[C@H](C)[C@@H]1NC(=O)[C@@H]2CSSC[C@@H]3NC(=O)[C@H](C(C)C)NC(=O)[C@H](CC(C)C)NC(=O)[C@H](CC(N)=O)NC(=O)[C@H](C)NC(=O)[C@H](CCCNC(=N)N)NC(=O)[C@H](CSSC[C@H](NC(=O)[C@@H](N)CC(=O)O)C(=O)N[C@@H](CC(C)C)C(=O)NCC(=O)N[C@@H](Cc4ccccc4)C(=O)N[C@@H](CCSC)C(=O)N[C@@H](CCCNC(=N)N)C(=O)N[C@@H](CCCCN)C(=O)N2)NC(=O)[C@H](CSSC[C@@H](C(=O)N[C@@H](CCCCN)C(=O)N[C@@H](Cc2ccc(O)cc2)C(=O)N[C@H](C(=O)N[C@@H](Cc2ccccc2)C(N)=O)C(C)C)NC(=O)[C@H](Cc2c[nH]c4ccccc24)NC(=O)[C@H](CCCCN)NC(=O)[C@H](Cc2cnc[nH]2)NC(=O)[C@H]([C@@H](C)O)NC(=O)[C@H](CCCNC(=N)N)NC(=O)[C@H](CO)NC3=O)NC(=O)[C@H](CCCCN)NC(=O)[C@H](CC(=O)O)NC(=O)[C@H](CC(N)=O)NC(=O)[C@H](CC(=O)O)NC(=O)[C@@H]2CCCN2C1=O (H-DCLGFMRKCIPDNDKCCRANLVCSRTHKWCKYVF-NH2; disulfide 2-17, 9-23, 16-30) | 0.09 | > 20
3 | CC[C@H](C)[C@@H]1NC(=O)[C@@H]2CSSC[C@@H]3NC(=O)[C@H](C(C)C)NC(=O)[C@H](CC(C)C)NC(=O)[C@H](CC(N)=O)NC(=O)[C@@H]4CCCN4C(=O)[C@H](CCCNC(=N)N)NC(=O)[C@H](CSSC[C@H](NC(=O)[C@@H](N)CC(=O)O)C(=O)N[C@@H](CC(C)C)C(=O)NCC(=O)N[C@@H](Cc4ccccc4)C(=O)N[C@@H](CCSC)C(=O)N[C@@H](CCCNC(=N)N)C(=O)N[C@@H](CCCCN)C(=O)N2)NC(=O)[C@H](CSSC[C@@H](C(=O)N[C@@H](CCCCN)C(=O)N[C@@H](Cc2ccc(O)cc2)C(=O)N[C@H](C(=O)N[C@@H](Cc2ccccc2)C(N)=O)C(C)C)NC(=O)[C@H](Cc2c[nH]c4ccccc24)NC(=O)[C@H](CCCCN)NC(=O)[C@H](Cc2cnc[nH]2)NC(=O)[C@H]([C@@H](C)O)NC(=O)[C@H](C)NC(=O)[C@H](CO)NC3=O)NC(=O)[C@H](CCCCN)NC(=O)[C@H](CC(=O)O)NC(=O)[C@H](CC(N)=O)NC(=O)[C@H](CC(=O)O)NC(=O)[C@@H]2CCCN2C1=O (H-DCLGFMRKCIPDNDKCCRPNLVCSATHKWCKYVF-NH2; disulfide 2-17, 9-23, 16-30) | 0.33 | > 5
4 | CC[C@H](C)[C@@H]1NC(=O)[C@@H]2CSSC[C@@H]3NC(=O)[C@H](C(C)C)NC(=O)[C@H](CC(C)C)NC(=O)[C@H](CC(N)=O)NC(=O)[C@@H]4CCCN4C(=O)[C@H](CCCNC(=N)N)NC(=O)[C@H](CSSC[C@H](NC(=O)[C@@H](N)CC(=O)O)C(=O)N[C@@H](CC(C)C)C(=O)NCC(=O)N[C@@H](Cc4ccccc4)C(=O)N[C@@H](CCSC)C(=O)N[C@@H](CCCNC(=N)N)C(=O)N[C@@H](CCCCN)C(=O)N2)NC(=O)[C@H](CSSC[C@@H](C(=O)N[C@@H](CCCCN)C(=O)N[C@@H](Cc2ccc(O)cc2)C(=O)N[C@H](C(=O)N[C@@H](C)C(N)=O)C(C)C)NC(=O)[C@H](Cc2c[nH]c4ccccc24)NC(=O)[C@H](CCCCN)NC(=O)[C@H](Cc2cnc[nH]2)NC(=O)[C@H]([C@@H](C)O)NC(=O)[C@H](CCCNC(=N)N)NC(=O)[C@H](CO)NC3=O)NC(=O)[C@H](CCCCN)NC(=O)[C@H](CC(=O)O)NC(=O)[C@H](CC(N)=O)NC(=O)[C@H](CC(=O)O)NC(=O)[C@@H]2CCCN2C1=O (H-DCLGFMRKCIPDNDKCCRPNLVCSRTHKWCKYVA-NH2; disulfide 2-17, 9-23, 16-30) | 1.2 | > 5
5 | CC[C@H](C)[C@@H]1NC(=O)[C@@H]2CSSC[C@@H]3NC(=O)[C@H](C(C)C)NC(=O)[C@H](CC(C)C)NC(=O)[C@H](CC(N)=O)NC(=O)[C@@H]4CCCN4C(=O)[C@H](CCCNC(=N)N)NC(=O)[C@H](CSSC[C@H](NC(=O)[C@@H](N)CC(=O)O)C(=O)N[C@@H](CC(C)C)C(=O)NCC(=O)N[C@@H](Cc4ccccc4)C(=O)N[C@@H](CCSC)C(=O)N[C@@H](CCCNC(=N)N)C(=O)N[C@@H](CCCCN)C(=O)N2)NC(=O)[C@H](CSSC[C@@H](C(=O)N[C@@H](CCCCN)C(=O)N[C@@H](Cc2ccc(O)cc2)C(=O)N[C@H](C(=O)N[C@@H](Cc2ccccc2)C(N)=O)C(C)C)NC(=O)[C@H](C)NC(=O)[C@H](CCCCN)NC(=O)[C@H](Cc2cnc[nH]2)NC(=O)[C@H]([C@@H](C)O)NC(=O)[C@H](CCCNC(=N)N)NC(=O)[C@H](CO)NC3=O)NC(=O)[C@H](CCCCN)NC(=O)[C@H](CC(=O)O)NC(=O)[C@H](CC(N)=O)NC(=O)[C@H](CC(=O)O)NC(=O)[C@@H]2CCCN2C1=O (H-DCLGFMRKCIPDNDKCCRPNLVCSRTHKACKYVF-NH2; disulfide 2-17, 9-23, 16-30) | > 5 | > 5
6 | CC[C@H](C)[C@@H]1NC(=O)[C@@H]2CSSC[C@@H]3NC(=O)[C@H](C(C)C)NC(=O)[C@H](CC(C)C)NC(=O)[C@H](CC(N)=O)NC(=O)[C@@H]4CCCN4C(=O)[C@H](CCCNC(=N)N)NC(=O)[C@H](CSSC[C@H](NC(=O)[C@@H](N)CC(=O)O)C(=O)N[C@@H](CC(C)C)C(=O)NCC(=O)N[C@@H](C)C(=O)N[C@@H](Cc4ccccc4)C(=O)N[C@@H](CCCNC(=N)N)C(=O)N[C@@H](CCCCN)C(=O)N2)NC(=O)[C@H](CSSC[C@@H](C(=O)N[C@@H](CCCCN)C(=O)N[C@@H](Cc2ccc(O)cc2)C(=O)N[C@H](C(=O)N[C@@H](Cc2ccccc2)C(N)=O)C(C)C)NC(=O)[C@H](Cc2c[nH]c4ccccc24)NC(=O)[C@H](CCCNC(=N)N)NC(=O)[C@H](Cc2cnc[nH]2)NC(=O)[C@H](CC(C)C)NC(=O)[C@H](CCCNC(=N)N)NC(=O)[C@H](CO)NC3=O)NC(=O)[C@H](CCCCN)NC(=O)[C@H](CC(=O)O)NC(=O)[C@H](CC(N)=O)NC(=O)[C@H](CC(=O)O)NC(=O)[C@@H]2CCCN2C1=O (H-DCLGAFRKCIPDNDKCCRPNLVCSRLHRWCKYVF-NH2; disulfide 2-17, 9-23, 16-30) | 0.0016 | > 10
7 | CC[C@H](C)[C@@H]1NC(=O)[C@@H]2CSSC[C@@H]3NC(=O)[C@H](C(C)C)NC(=O)[C@H](CC(C)C)NC(=O)[C@H](CC(N)=O)NC(=O)[C@@H]4CCCN4C(=O)[C@H](CCCNC(=N)N)NC(=O)[C@H](CSSC[C@H](NC(=O)[C@@H](N)CC(=O)O)C(=O)N[C@@H](CC(C)C)C(=O)NCC(=O)N[C@@H](CC(C)C)C(=O)N[C@@H](CCSC)C(=O)N[C@@H](CCCNC(=N)N)C(=O)N[C@@H](CCCCN)C(=O)N2)NC(=O)[C@H](CSSC[C@@H](C(=O)N[C@@H](CCCCN)C(=O)N[C@@H](Cc2ccc(O)cc2)C(=O)N[C@H](C(=O)N[C@@H](Cc2ccccc2)C(N)=O)C(C)C)NC(=O)[C@H](Cc2c[nH]c4ccccc24)NC(=O)[C@H](CCCCN)NC(=O)[C@H](Cc2cnc[nH]2)NC(=O)[C@H]([C@@H](C)O)NC(=O)[C@H](CCCNC(=N)N)NC(=O)[C@H](CO)NC3=O)NC(=O)[C@H](CCCCN)NC(=O)[C@H](CC(=O)O)NC(=O)[C@H](CC(N)=O)NC(=O)[C@H](CC(=O)O)NC(=O)[C@@H]2CCCN2C1=O (H-DCLGLMRKCIPDNDKCCRPNLVCSRTHKWCKYVF-NH2; disulfide 2-17, 9-23, 16-30) | 0.005 | > 10
8 | CCC[C@@H]1NC(=O)CNC(=O)[C@H](CC(C)C)NC(=O)[C@@H](NC(=O)[C@@H](N)CC(=O)O)CSSC[C@@H]2NC(=O)[C@@H]3CSSC[C@@H](C(=O)N[C@@H](CCCCN)C(=O)N[C@@H](Cc4ccc(O)cc4)C(=O)N[C@H](C(=O)N[C@@H](Cc4ccccc4)C(N)=O)C(C)C)NC(=O)[C@H](Cc4c[nH]c5ccccc45)NC(=O)[C@H](CCCCN)NC(=O)[C@H](Cc4cnc[nH]4)NC(=O)[C@H]([C@@H](C)O)NC(=O)[C@H](CCCNC(=N)N)NC(=O)[C@H](CO)NC(=O)[C@H](CSSC[C@H](NC(=O)[C@H](CCCCN)NC(=O)[C@H](CCCNC(=N)N)NC(=O)[C@H](CCSC)NC1=O)C(=O)N[C@@H]([C@@H](C)CC)C(=O)N1CCC[C@H]1C(=O)N[C@@H](CC(=O)O)C(=O)N[C@@H](CC(N)=O)C(=O)N[C@@H](CC(=O)O)C(=O)N[C@@H](CCCCN)C(=O)N3)NC(=O)[C@H](C(C)C)NC(=O)[C@H](CC(C)C)NC(=O)[C@H](CC(N)=O)NC(=O)[C@@H]1CCCN1C(=O)[C@H](CCCNC(=N)N)NC2=O | 0.039 | > 10

Reference: ChEMBL document CHEMBL3414527, “Engineering potent and selective analogues of GpTx-1, a tarantula venom peptide antagonist of the Na(V)1.7 sodium channel” (J Med Chem, 2015)
